Reference: US20220257571A1, “INHIBITOR OF MAP KINASE INTERACTING SERINE/THREONINE KINASE 1 (MNK1) AND MAP KINASE INTERACTING SERINE/THREONINE KINASE 2 (MNK2), CANCER THERAPY AND THERAPEUTIC COMBINATIONS” (FUNPACIÓ HOSPITAL UNIVERSITARI VALL D'HEBRON - INSTITUT DE …, priority 2019, published 2022)

Key:
[1] = target: T1, MNK1 (Homo sapiens, UniProt Q9BUB5); experiment: radiometric kinase assay (33PanQinase Activity Assay), MNK1; assay type: biochemical
T1 construct: purchased Proqinase
Experimental: The kinase activity of the compound was measured by a radiometric kinase assay (^33PanQinase® Activity Assay) carried out by Proqinase (www.proqinase.com).
The assays were carried out in 96-well FlashPlates™ by PerkinElmer (Boston, Mass., USA) with a reaction volume of 50 μl. The reaction cocktail was pipetted in 4 steps: (1) 20 μl buffer, (2) 5 μl ATP solution (in H2O), (3) 5 μl compound (in 10% DMSO) and (4) 20 μl enzyme/substrate mixture. Lastly, the cocktail contained 70 mM HEPES-NaOH pH 7.5, 3 mM MgCl2, 3 mM MnCl2, 3 μM sodium orthovanadate, 1.2 mM DTT, 50 μg/ml PEG20000, ATP (1 μM for MNK1 and 0.3 μM for MNK2), [γ-^33P]-ATP (approx. […] per well), protein kinase (variable amounts depending on the batch) and substrate (2 μg/50 μl).
Reaction cocktails were incubated at 30° C. for 60 minutes. The reaction was stopped with 50 μl of 2% H3PO4 (v/v), the plates were sucked, they were washed twice with 200 μl of 0.9% NaCl (w/v) and the incorporation of ^33Pi (MicroBeta microplate scintillation counter, Wallac) was determined. All assays were performed with a Beckman Coulter/SAGIAN™ system.
The residual activity (in %) for each well of a particular plate was calculated using the following formula (wherein high control is the kinase activity in absence of an inhibitor and low control is the radioactivity value of the substrate in absence of a kinase).
To screen compounds, the residual activity of both kinases was analysed after treatment with 10 μM of the compounds.
To study selectivity, residual activity was measured at 1 μM from a 320-kinase panel.

[2] = test system: 22Rv1 castration resistant prostate cancer cells; experiment: cell viability of 22Rv1 cells, EB1 with Enzalutamide; assay type: cell-based; settings: 22Rv1, co-treatment with Enzalutamide, 72 h
Experimental: Cell viability under combined inhibition of AR and eIF4E phosphorylation was assayed. […] (B) Number of viable cells after 72 h treatment with pairwise combinations reported as percentage relative to control. (E) Cell viability data presented as a grid displaying the percentage of affected cells by each pairwise combination of drug doses. (C) Drug combinations with the strongest inhibition in cell viability (bars; mean±SEM; n=3. *p<0.05, **p<0.01 two-tailed Student's test). (F) Combination index (CI) presented as a grid for each pairwise combination of drug doses calculated by the Chou-Talalay method at non-constant ratio. (D and I) Fraction affected vs. combination index (CI) plots.

[3] = test system: MCF10 cells; experiment: in vitro proliferation assay (crystal violet), MCF10; assay type: cell-based; settings: non-tumour cells MCF10, concentrations necessary to inhibit MNK activity
Experimental: MCF10A cells (also commercially available) were grown in DMEM/F-12 medium (Dulbecco's Modified Eagle Medium: 3.125 g/L D-Glucosa, 365 mg/L L-Glutamine, Nutrient Mixture F-12 (Gibco)) supplemented with 10% FBS, 100 U/ml penicillin, 100 μg/ml streptomycin, 1% L-Glutamine (Cambrex), 10 ng/ml choleric toxin (Sigma-Aldrich), 0.005 mg/ml insulin (Sigma), 100 ng/ml hydrocortisone (Sigma) and 20 ng/ml EGF (Epidermal growth factor, Sigma).
In 96-well plates, 5000 cells were seeded for each condition. After 24 h, the cells were treated with the compound at the corresponding concentration. The stocks of compounds were prepared in 100% DMSO at a concentration 200 times more concentrated than the treatment concentration. Thus, in all cases, the final concentration of DMSO in the medium is 0.5%. After incubation, the medium was removed and the cells were fixed with 4% PFA (100 μl per well) for 30 minutes. Two washes with PBS were performed.
Cells were stained with crystal violet (0.5% in EtOH): 100 μl were added to each well, stirred for 15 minutes, washed with water and left to dry. The content of each well was dissolved in 200 μl of 15% AcOH and the absorbance thereof was measured at 595 nm.

T1 sequence (Q9BUB5 whole entry): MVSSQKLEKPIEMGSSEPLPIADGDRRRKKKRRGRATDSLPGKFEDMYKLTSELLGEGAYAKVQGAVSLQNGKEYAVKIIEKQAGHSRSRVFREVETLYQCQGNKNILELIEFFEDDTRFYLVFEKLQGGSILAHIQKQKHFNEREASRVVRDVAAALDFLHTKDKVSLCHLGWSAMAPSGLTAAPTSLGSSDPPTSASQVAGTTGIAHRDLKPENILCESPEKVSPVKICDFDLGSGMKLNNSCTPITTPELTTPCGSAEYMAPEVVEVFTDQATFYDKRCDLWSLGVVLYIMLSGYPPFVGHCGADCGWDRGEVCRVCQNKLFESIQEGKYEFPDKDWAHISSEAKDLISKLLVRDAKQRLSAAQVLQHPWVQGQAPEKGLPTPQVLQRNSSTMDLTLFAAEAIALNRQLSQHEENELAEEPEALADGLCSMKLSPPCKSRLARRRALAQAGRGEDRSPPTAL

Which remaining activity at 10 µM ([1]; after treatment with 10 μM compound, ATP 1 μM, read-out: residual activity of MNK1) does the source give for `Nc1n[nH]c2nc(-c3ccccc3)cc(-c3ccccc3)c12` [EB1, 4,6-diphenyl-1H-pyrazolo[3,4-b]pyridin-3-amine] here?
The remaining activity at 10 µM was 14%.

What about the inhibition at 1 µM ([1]; at 1 uM, kinase panel) of the same compound?
Its inhibition at 1 µM is 48%.

What about the “effect of co-treatment on cell viability” value [2] of the same compound?
Its value is “synergistic effect”.

What about the “effect on cell growth” value [3] of the same compound?
Its value is “does not affect the cell growth”.
